One experiment relates to Erk1/2 phosphorylation. The experiment is described as follows: Erk1/2 Phosphorylation Assay (western blot), Panc-1. The format is cell-based, human. As to conditions: at 10 μM, * = activation. In outline:
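KRas G12D Panc-1 cells were treated 6 h at 37° C with compound at 10 μM or serial dilutions for IC50 (0.3% DMSO). In method 1, cells were serum-starved overnight (0.5% FBS) and then given 1.5 ng/ml EGF for 15 min. In method 2, cells stayed in 10% FBS without stimulation. Lysate phospho-Erk1/2 (Thr202/Tyr204) was read by western blot.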
In general terms: Immunoblotting shows a protein as a band on a membrane.

A further experiment has as its target T1, Rac-1 (Homo sapiens, UniProt P63000).
T1 construct: made in house
Briefly: Ras GTP Binding Domain Inhibition Assay (Ras Superfamily Assay). As to conditions: read-out: Rac-1: % inh. The essentials: (§1)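 Binding of 100 nM fluorescent GTP (Cy3 or Cy5, 45 min, room temperature) was read after washes from plate-captured His-tagged protein. Beforehand, compounds at 20 μM or in dilution series for IC50 sat 3 h on the protein in Tris buffer pH 7.4 or 7.0 with 1% DMSO, Sos GEF optionally added for the last hour.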

Another experiment deals with KRas G12D mutant. The description is as above. As to conditions: 20 μM compound; for KRas G12D mutant + SOS: % inh.: with SOS; for KRas G12D mutant: % inh.: without SOS. In outline: as §1
The next experiment has as its system KRas wild type. Described as above. As to conditions: 20 μM compound; for KRas wild type + SOS: % inh.: with SOS; for KRas wild type: % inh.: without SOS. The essentials:
as §1

The subject of the next experiment is TNF-alpha. Briefly: TNF-alpha Quantification Assay (ELISA), LPS-stimulated RAW 264.7. The format is cell-based. Particulars: Mus musculus, RAW264.7; at 10 μM; read-out: TNFα: % inh. (ELISA stands for enzyme-linked immunosorbent assay.)
Another experiment has as its system IL6. Briefly: IL-6 Quantification Assay (ELISA), LPS-stimulated RAW 264.7. Type of experiment: cell-based. On the set-up: inhibition: dose or concentration left out as unconfirmed. As to conditions: Mus musculus, RAW264.7; read-out: IL-6: % inh.

This note sets out measurements from patent US12459951B2, “Compounds that interact with RAS superfamily proteins for treatment of cancers, inflammatory diseases, rasopathies, and fibrotic disease” (SHY Therapeutics, LLC, priority 2022, dated 2025).

In the case of `COc1cccc(-c2cn3nc(-c4nccn4C)nc(N[C@@H]4CC[C@@H](OC)C4)c3c2-c2ccccc2)c1Cl.Cl` (racemic) [Compound 34, rac 6-(2-Chloro-3-methoxyphenyl)-N-((1R,3R)-3-methoxycyclopentyl)-2-(1-methyl-1H-imidazol-2-yl)-5-phenylpyrrolo[2,1-f][1,2,4]triazin-4-amine hydrochloride], the “% inh of Erk1/2 phosphorylation in Panc-1” value (from here on “% inh … in Panc-1”) in the experiment with Erk1/2 phosphorylation is recorded as “D (85-100% inhibition)”. In addition, on Rac-1, the inhibition at 20 µM was 26 to 49%. Further, in the experiment on KRas G12D mutant, the “KRas G12D mutant + SOS: % inh.” value is 0 (0 = 0% inhibition) and the “KRas G12D mutant: % inh.” value is reported as 0 (0 = 0% inhibition). Further, in the experiment with KRas wild type, the “KRas wild type + SOS: % inh.” value was “A (A = 1-25% inhibition)” and the “KRas wild type: % inh.” value is reported as 0 (0 = 0% inhibition). The inhibition at 10 µM in the experiment with TNF-alpha is 1 to 24%. For the same compound, the inhibition with IL6 fell in the range of 75 to 100%.
In the case of `Cc1c(-c2ccn(C(C)C)n2)cn2nc(-c3nccn3C)nc(Nc3cc4n(n3)CCO4)c12` [Compound 91, N-(6-(1-Isopropyl-1H-pyrazol-3-yl)-5-methyl-2-(1-methyl-1H-imidazol-2-yl)pyrrolo[2,1-f][1,2,4]triazin-4-yl)-2,3-dihydropyrazolo[5,1-b]oxazol-6-amine], the “% inh … in Panc-1” value with Erk1/2 phosphorylation is given as “D* (85-100% activation)”. At Rac-1, the inhibition at 20 µM was 76 to 100%. For the same compound, in the experiment on KRas G12D mutant, the “KRas G12D mutant + SOS: % inh.” value is given as “D (D = 76-100% inhibition)” and the “KRas G12D mutant: % inh.” value was “D (D = 76-100% inhibition)”. In the experiment with KRas wild type, the “KRas wild type + SOS: % inh.” value is “C (C = 50-75% inhibition)” and the “KRas wild type: % inh.” value is recorded as “D (D = 76-100% inhibition)”. The inhibition at 10 µM with TNF-alpha lay within 1 to 24%. The inhibition in the experiment with IL6 fell in the range of 1 to 24%.
`Cc1c(-c2ccn(C(C)C)n2)cn2nc(-c3nccn3C)nc(Nc3cn(C(C)C)nn3)c12` [Compound 78, N-(1-Isopropyl-1H-1,2,3-triazol-4-yl)-6-(1-isopropyl-1H-pyrazol-3-yl)-5-methyl-2-(1-methyl-1H-imidazol-2-yl)pyrrolo[2,1-f][1,2,4]triazin-4-amine]: the “% inh … in Panc-1” value in the experiment on Erk1/2 phosphorylation is on record as “D* (85-100% activation)”. Moreover, the inhibition at 20 µM on Rac-1 lay in the range of 76 to 100%. For the same compound, in the experiment on KRas G12D mutant, the “KRas G12D mutant + SOS: % inh.” value is on record as “D (D = 76-100% inhibition)” and the “KRas G12D mutant: % inh.” value was “D (D = 76-100% inhibition)”. Further, in the experiment on KRas wild type, the “KRas wild type + SOS: % inh.” value is recorded as “D (D = 76-100% inhibition)” and the “KRas wild type: % inh.” value is given as “D (D = 76-100% inhibition)”. In addition, in the experiment on TNF-alpha, the inhibition at 10 µM lay within 25 to 49%. In the experiment with IL6, the inhibition lay within 25 to 49%.
